In US5998442A, “Benzo [B] thiophene compounds, and compositions for treating bone loss, and hyperlipidemia” (Eli Lilly and Company, priority 1997, dated 1999):
pIC50: −log10 of the molar value. Like-named read-outs stand apart in the source and are kept apart here.

Legend:
[1] = test system: Uterine Eosinophil Peroxidase (EPO); assay: Uterine Eosinophil Peroxidase (EPO) Assay in ovariectomized rats; type: in vivo, rat (female Sprague Dawley); parameters: Uterine EPO (Vmax): unit not given here
Description: (§1) Seventy-five day old female Sprague Dawley rats (weight range of 200 to 225 g) were obtained from Charles River Laboratories (Portage, Mich.). The animals were either bilaterally ovariectomized (OVX) or exposed to a Sham surgical procedure at Charles River Laboratories, and then shipped after one week. Upon arrival, they were housed in metal hanging cages in groups of 3 or 4 per cage and had ad libitum access to food (calcium content approximately 0.5%) and water for one week. Room temperature was maintained at 22.2°±1.70° C. with a minimum relative humidity of 40%. The photoperiod in the room was 12 hours light and 12 hours dark.
(§2) After a one week acclimation period (therefore, two weeks post-OVX) daily dosing with test compound was initiated. […] Animals were dosed daily for 4 days. Following the dosing regimen, animals were weighed and anesthetized with a ketamine: Xylazine (2:1, V:V) mixture and a blood sample was collected by cardiac puncture. The animals were then sacrificed by asphyxiation with CO2, the uterus was removed through a midline incision, and a wet uterine weight was determined.
Uteri were kept at 4° C. until time of enzymatic analysis. The uteri were then homogenized in 50 volumes of 50 mM Tris buffer (pH-8.0) containing 0.005% Triton X-100. Upon addition of 0.01% hydrogen peroxide and 10 mM O-phenylenediamine (final concentrations) in Tris buffer, increase in absorbance was monitored for one minute at 450 nm. The presence of eosonophils in the uterus is an indication of estrogenic activity of a compound. The maximal velocity of a 15 second interval was determined over the initial, linear portion of the reaction curve.
As is expressed in the data below, estrogenicity also was assessed by evaluating the adverse response of eosinophil infiltration into the uterus.
(§3) The data presented in Table 1 below reflects the response of 5 to 6 rats per treatment.

[2] = test system: serum cholesterol, ovariectomized rats; assay: Serum cholesterol in ovariectomized rats (4 days daily oral dosing); type: in vivo, rat (female Sprague Dawley); details: Rattus norvegicus, 96 h, read-out: Serum Cholesterol (% decrease vs. OVX); for inhibition in vivo at 0.1 mg/kg: 0.1 mg/kg PO; for inhibition in vivo at 1 mg/kg: 1.0 mg/kg PO; for inhibition in vivo at 10 mg/kg: 10.0 mg/kg PO
Description: (§4) In the examples illustrating the methods, a postmenopausal model was used in which effects of different treatments upon circulating lipids were determined.
as §1, §2
Blood samples were allowed to clot at room temperature for 2 hours, and serum was obtained following centrifugation for 10 minutes at 3000 rpm. Serum cholesterol was determined using a Boehringer Mannheim Diagnostics high performance cholesterol assay. Briefly the cholesterol was oxidized to cholest-4-en-3-one and hydrogen peroxide. The hydrogen peroxide was then reacted with phenol and 4-aminophenazone in the presence of peroxidase to produce a p-quinone imine dye, which was read spectrophotemetrically at 500 nm. Cholesterol concentration was then calculated against a standard curve. The entire assay was automated using a Biomek Automated Workstation. […]
as §3

[3] = test system: MCF-7 breast adenocarcinoma cells; assay: MCF-7 Proliferation Assay (tritiated thymidine); type: cell-based; details: for pIC50: Homo sapiens, MCF7, 48 hours, read-out: IC50
Description: MCF-7 breast adenocarcinoma cells (ATCC HTB 22) were maintained in MEM (minimal essential medium, phenol red-free, Sigma, St. Louis, Mo.) supplimented with 10% fetal bovine serum (FBS) (V/V), L-glutamine (2 mM), sodium pyruvate (1 mM), HEPES {(N-[2-hydroxyethyl]piperazine-N'-[2-ethanesulfonic acid]10 mM}, non-essential amino acids and bovine insulin (1 ug/mL) (maintenance medium). Ten days prior to assay, MCF-7 cells were switched to maintenance medium supplemented with 10% dextran coated charcoal stripped fetal bovine serum (DCC-FBS) assay medium) in place of 10% FBS to deplete internal stores of steroids. MCF-7 cells were removed from maintenance flasks using cell dissociation medium (Ca++/Mg++ free HBSS (phenol red-free) supplemented with 10 mM HEPES and 2 mM EDTA). Cells were washed twice with assay medium and adjusted to 80,000 cells/mL. Approximately […] (8,000 cells) were added to flat-bottom microculture wells (Costar 3596) and incubated at 37° C. in a 5% CO2 humidified incubator for 48 hours to allow for cell adherence and equilibration after transfer. Serial dilutions of drugs or DMSO as a diluent control were prepared in assay medium and […] to triplicate microcultures followed by […] assay medium for a final volume of […]. After an additional 48 hours at 37° C. in a 5% CO2 humidified incubator, microcultures were pulsed with tritiated thymidine (1 uCi/well) for 4 hours. Cultures were terminated by freezing at -70° C. for 24 hours followed by thawing and harvesting of microcultures using a Skatron Semiautomatic Cell Harvester. Samples were counted by liquid scintillation using a Wallac BetaPlace b counter. Results in Table 4 below show the IC50 for certain compounds of the instant invention. […]

[4] = test system: uterus, ovariectomized rats; assay: Uterine weight in ovariectomized rats (4 days daily oral dosing); type: in vivo, rat (female Sprague Dawley); details: Rattus norvegicus, 96 h, read-out: Uterine weight (% increase vs. OVX); for change in vivo at 0.1 mg/kg: 0.1 mg/kg PO; for change in vivo at 1 mg/kg: 1.0 mg/kg PO; for change in vivo at 10 mg/kg: 10.0 mg/kg PO
Description: as §4, §1, §2
This uterine response to estrogen is well recognized in the art.
as §3

SMILES	Uterine EPO (Vmax) ([1]; 0.1 mg/kg PO)	Uterine EPO (Vmax) ([1]; 1.0 mg/kg PO)	Uterine EPO (Vmax) ([1]; 10.0 mg/kg PO)	inhibition in vivo at 0.1 mg/kg [2]	inhibition in vivo at 1 mg/kg [2]	inhibition in vivo at 10 mg/kg [2]	pIC50 [3]	change in vivo at 0.1 mg/kg [4]	change in vivo at 1 mg/kg [4]	change in vivo at 10 mg/kg [4]	eosinophil infiltration into the uterus (in words) ([1]; stromal layer of ovariectomized rats)	Uterine EPO (Vmax) ([1]; 5.0 mg/kg PO)	inhibition in vivo at 5 mg/kg ([2]; 5.0 mg/kg PO)	change in vivo at 5 mg/kg ([4]; 5.0 mg/kg PO)	IC50 ([3]; 48 hours)
COc1ccc2c(C(=O)c3ccc(OCCN4CCCCC4)cc3)c(-c3cccc(F)c3)sc2c1 [Example 21, [2-(3-Fluorophenyl)-6-methoxybenzo[b]thien-3-yl] [4-[2-(1-piperidinyl)ethoxy]phenyl]methanone]	4.5	4.8	7.5	1.4%	-12%	60.5%	6.30	14.9%	4.1%	25.3%	–	–	–	–	–
O=C(Oc1cccc(-c2sc3cc(OC(=O)c4ccccc4)ccc3c2C(=O)c2ccc(OCCN3CCCCC3)cc2)c1)c1ccccc1 [Example 13, [2-(3-Benzoyloxyphenyl)-6-benzoyloxybenzo[b]thien-3-yl][4-[2-(1-piperidinyl)ethoxy]phenyl]methanone]	3.0	6.0	8.4	25.3%	45.7%	61.4%	–	-18.6%	34.7%	27.6%	–	–	–	–	–
COc1ccc2c(C(=O)c3ccc(OCCN4CCCCC4)cc3)c(-c3ccc(OC)c(OC)c3)sc2c1 [Example 8, [2-(3,4-Dimethoxyphenyl)-6-methoxybenzo[b]thien-3-yl][4-[2-(1-piperidinyl)ethoxy]phenyl]methanone]	1.3	4.4	11.2	24.8%	57.8%	60.8%	–	-8.3%	23.4%	24.1%	–	–	–	–	–
C[C@]12CC[C@@H]3c4ccc(O)cc4CC[C@H]3[C@@H]1CC[C@@H]2O [estradiol, reference compound]	–	–	–	–	–	–	–	–	–	–	substantial, expected increase in eosinophil infiltration	–	–	–	–
O=C(c1ccc(OCCN2CCCCC2)cc1)c1c(-c2ccc(C(F)(F)F)cc2)sc2cc(O)ccc12 [Example 20, [2-(4-Trifluoromethylphenyl)-6-hydroxybenzo[b]thien-3-yl][4-[2-(1-piperidinyl)ethoxy]phenyl]methanone]	1.8	7	–	45.5%	47.9%	–	6.00	-2%	7%	–	–	16.4	71.5%	37.4%	–
COc1ccc2c(C(=O)c3ccc(OCCN4CCCCC4)cc3)c(-c3ccc(C(F)(F)F)cc3)sc2c1 [Example 19, [2-(4-Trifluoromethylphenyl)-6-methoxybenzo[b]thien-3-yl][4-[2-(1-piperidinyl)ethoxy]phenyl]methanone]	6.8	4.3	4	22.3%	3.1%	20.6%	–	10.3%	15.6%	16.6%	–	–	–	–	Not active
